Test results: patent US11479536B1 (King Abdulaziz University, priority 2022, dated 2022)

Legend:
T47D spheroids [1] = experiment: Cytotoxicity assay (MTT) in spheroid culture, T47D; format: cell-based, human; conditions: for IC50: Homo sapiens, T47D, 3D spheroid model, 48 h, MTT; for reduction of spheroid size: T47D spheroids treated at IC50 for 48 h, vs control
Description: 1×10^4 cells of each cell line (MCF7 and T47D) were seeded into ultra-low attachment 96 well plate at 37° C. and grown for 48 hours in DMEM media to result in the formation of spheroids. Then, the cells were subjected to the different treatment conditions before performing the assays.
The cytotoxic effects of MAK compounds were assessed against MCF7 and T47D cell lines using MTT cell viability assay. The cells were treated for 48 hours with different concentrations of each MAK compound and the control cells were subjected to the vehicle (0.1% DMSO). Then, 10% of 5 mg/mL MTT was added to each well containing treated or control cells, and mixture was incubated at 37° C. for 3 hours. After that, the MTT-containing media was replaced with 100 μL DMSO and incubated for 10 minutes at room temperature before measuring the absorbance for each well at 570 nm. According to the measured absorbance, the IC50 was calculated for each compound. All the experiments were performed in biological and experimental replicates.

CYP2D6 = target: T1, CYP2D6 (Homo sapiens, UniProt P10635); experiment: Inhibition assay of human CYP450 enzymes, 2D6; format: in vitro ADME
T1 construct: purchased Fisher Scientific; host or cells: insect supersomes
T1 sequence (P10635 whole entry): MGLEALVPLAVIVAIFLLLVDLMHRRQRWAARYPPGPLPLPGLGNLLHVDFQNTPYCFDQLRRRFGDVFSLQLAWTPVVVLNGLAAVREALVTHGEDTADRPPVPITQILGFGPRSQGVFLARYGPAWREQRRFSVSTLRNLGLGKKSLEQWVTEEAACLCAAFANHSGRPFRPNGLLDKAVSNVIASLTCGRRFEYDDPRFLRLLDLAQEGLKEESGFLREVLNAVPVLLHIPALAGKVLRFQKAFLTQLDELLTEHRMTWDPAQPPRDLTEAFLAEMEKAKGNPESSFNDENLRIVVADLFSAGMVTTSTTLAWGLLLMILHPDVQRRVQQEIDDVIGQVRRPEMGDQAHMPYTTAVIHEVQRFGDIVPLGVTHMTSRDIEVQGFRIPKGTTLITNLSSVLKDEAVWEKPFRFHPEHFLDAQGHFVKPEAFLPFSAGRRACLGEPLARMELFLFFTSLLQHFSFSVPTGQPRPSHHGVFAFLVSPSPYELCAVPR
Description: The two compounds MAK-1 and MAK-6 were assessed for its ability to inhibit the three major human CYP450 enzymes, 3A4, 2D6 and 2C9. Assays were run in triplicate. Expressed enzymes in insect supersomes (Fisher Scientific, Waltham, Mass.) were used to minimize non-specific binding and membrane partitioning issues (McMasters et al., 2007). The 3A4 assay uses testosterone as a substrate and analysis was performed by LC/MS/MS on a Waters Xevo TQ instrument as described above using positive electrospray ionization. Assay acceptance criteria was 20% for all standards and 25% for the LLOQ. The 2D6 and 2C9 assays use fluorescent substrates (3-[2-(N,N-diethylamino)ethyl]-7-methoxy-4-methylcoumarin for 2D6; 7-methoxy-4-(trifluoromethyl)coumarin for 2C9) and were analyzed on an Envision plate reader. GraphPad® Prism v 5.04 was used for nonlinear fitting of data to generate IC50 values.

[2] = Binding to mouse plasma proteins (equilibrium dialysis); format: in vitro ADME; conditions: CD-1, pH 7.4, 37° C., read-out: free, unbound fraction in mouse plasma
Description: The equilibrium dialysis method for determining plasma protein binding was performed as previously described using 96-well dialyzer plates with molecular weight cutoff of 5K (Harvard Apparatus, Holliston, Mass.) and a dual-plate rotator set to maximum speed (Harvard Apparatus, Holliston, Mass.) located in a 37° C. incubator with a 10% CO2-atmospheric environment. Assays were run in triplicate. The test compounds were added to CD-1 mouse plasma (Innovative Research, Novi, Mich., sodium heparin added as anticoagulant; pH adjusted to 7.4 with 2N HCl on day of use) in DMSO (final DMSO concentration 0.4%) to give 10 μM final concentration. Drug/plasma mixture and buffer (Dulbecco's phosphate-buffered saline 1× without calcium and magnesium, Mediatech, Inc., Herndon, Va.) were placed in their respective sides, wells were capped, and the plate was placed in the rotator and allowed to dialyze for 22 h. Following dialysis, aliquots of buffer and plasma mixture were removed and mixed with aliquots of the opposite matrix in 96-well deep plates. Concentrations of analytes from each side of the dialysis plate were determined by LC/MS/MS on a Waters Xevo TQ instrument as described above using positive electrospray ionization. […] The fraction unbound was calculated by dividing the drug concentration in the buffer side of the dialysis plate by the drug concentration in the plasma side.

AMPK (A1/B1/G2) = target: T2, AMPK (A1/B1/G2) (Homo sapiens, UniProt Q13131+Q9UGJ0+Q9Y478); experiment: Cell-free AMPK inhibition assay, AMPK (A1/B1/G2) Kinase Enzyme system; format: biochemical; conditions: recombinant full-length human AMPK
T2 construct: This system includes a recombinant full-length human AMPK enzyme; purchased Promega
T2 sequence (Q13131 whole entry): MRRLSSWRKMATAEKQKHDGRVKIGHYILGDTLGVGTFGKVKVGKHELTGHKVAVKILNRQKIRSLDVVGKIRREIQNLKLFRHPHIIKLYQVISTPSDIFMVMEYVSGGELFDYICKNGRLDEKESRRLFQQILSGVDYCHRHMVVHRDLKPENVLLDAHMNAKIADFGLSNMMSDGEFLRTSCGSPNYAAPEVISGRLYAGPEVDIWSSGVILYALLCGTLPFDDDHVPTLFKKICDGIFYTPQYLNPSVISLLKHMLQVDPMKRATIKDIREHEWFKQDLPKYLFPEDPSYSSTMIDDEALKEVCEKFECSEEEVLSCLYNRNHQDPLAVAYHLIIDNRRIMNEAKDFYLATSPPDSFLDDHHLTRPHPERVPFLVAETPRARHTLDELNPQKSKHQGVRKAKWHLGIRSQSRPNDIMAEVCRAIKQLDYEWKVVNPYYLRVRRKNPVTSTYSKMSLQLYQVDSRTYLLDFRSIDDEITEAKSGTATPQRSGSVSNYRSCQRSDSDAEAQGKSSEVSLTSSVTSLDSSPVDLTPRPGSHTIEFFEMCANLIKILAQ
T2 sequence (Q9Y478 whole entry partner): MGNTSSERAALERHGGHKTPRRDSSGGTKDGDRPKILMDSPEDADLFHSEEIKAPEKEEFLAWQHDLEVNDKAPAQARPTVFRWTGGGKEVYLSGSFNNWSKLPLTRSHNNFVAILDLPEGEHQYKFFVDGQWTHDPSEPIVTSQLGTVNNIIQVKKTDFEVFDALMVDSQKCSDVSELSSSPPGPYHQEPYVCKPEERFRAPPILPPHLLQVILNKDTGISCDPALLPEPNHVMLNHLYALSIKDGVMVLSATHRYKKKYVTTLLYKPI
T2 sequence (Q9UGJ0 whole entry partner): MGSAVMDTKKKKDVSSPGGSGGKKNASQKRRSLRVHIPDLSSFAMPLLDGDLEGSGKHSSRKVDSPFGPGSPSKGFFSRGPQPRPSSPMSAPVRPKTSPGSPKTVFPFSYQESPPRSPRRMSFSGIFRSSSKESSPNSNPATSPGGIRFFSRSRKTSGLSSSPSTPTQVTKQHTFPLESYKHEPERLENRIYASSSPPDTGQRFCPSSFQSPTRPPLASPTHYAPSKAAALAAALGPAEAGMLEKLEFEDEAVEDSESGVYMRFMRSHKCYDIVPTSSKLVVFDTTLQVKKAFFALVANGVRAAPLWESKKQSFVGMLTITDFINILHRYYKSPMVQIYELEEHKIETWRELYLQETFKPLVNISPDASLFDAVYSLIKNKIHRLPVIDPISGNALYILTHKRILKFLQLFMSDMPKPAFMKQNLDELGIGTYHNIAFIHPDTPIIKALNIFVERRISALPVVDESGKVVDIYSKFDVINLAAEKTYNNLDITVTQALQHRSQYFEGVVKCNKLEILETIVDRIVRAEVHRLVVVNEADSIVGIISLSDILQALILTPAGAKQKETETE
Description: The inhibitory effect of serial concentrations of MAK compounds on AMPK Kinase activity was investigated using the highly sensitive AMPK (A1/B1/G2) Kinase Enzyme assay system (Promega, Madison Wis. USA). This system includes a recombinant full-length human AMPK enzyme and a substrate for the enzyme. The experiment was conducted according to the manufacturer's instructions in the provided protocol. Mean values of replicates were calculated in comparison to the control group.

[3] = Stability in mouse plasma; format: in vitro ADME; conditions: 37° C., duration of the assay (5 h)
Description: The assay is conducted at 37° C. in triplicate. Test compounds or procaine (positive control) are tested at a final concentration of 1 μM in either 2.5% DMSO/CD-1 mouse plasma (Innovative Research, Novi, Mich.; sodium heparin added as anticoagulant; pH adjusted to 7.4 with 2N HCl on day of use) or 2.5% DMSO/PBS (pH 7.4: 136.9 mM NaCl, 2.68 mM KCl, 8.1 mM Na2HPO4, 1.47 mM KH2PO4, 0.9 mM CaCl2, 0.49 mM MgCl2). At seven time points, reaction mixture aliquots were transferred to 96-shallow well stop plates on ice containing acetonitrile with 0.1 μM propafenone. Samples were analyzed by LC/MS/MS on a Waters Xevo TQ instrument as described above using positive electrospray ionization. Assay acceptance criteria was 20% for all standards and 25% for the LLOQ. GraphPad® Prism v. 5.04 was used for nonlinear fitting of data to generate t1/2 values.

T47D spheroids [4] = experiment: Mitochondrial membrane potential assay (JC-1), T47D spheroids; format: cell-based, human; conditions: 48 h post treatment at IC50, control 15.67±2.05%
Description: The mitochondrial membrane potential was investigated in response to the treatment with MAK compounds. This assay depends on the measurement of the aggregate fluorescence for Tetraethylbenzimidazolylcarbocyanine iodide (JC-1). This cationic dye accumulates in the energized mitochondria, and the increase in aggregate fluorescence indicates mitochondrial […] while the reduction indicates the depolarization state.
After growing the cells and treating them with MAK compound for 48 hours, 2 μM of JC-1 final concentration was added and the mixture was incubated for 1 hour at 37° C. in presence of 5% CO2. Then, the samples were analyzed using flow cytometry. Mean values and standard deviation of replicates were calculated in comparison to the control group.

| SMILES | IC50 (T47D spheroids [1]) [µM] | reduction of spheroid size (T47D spheroids [1]) | inhibition of CYP2D6 (CYP2D6; concentrations up to 10 μM) | fraction unbound at 22 h, 10 μM [2] | IC50 (AMPK (A1/B1/G2)) [µM] | stability in mouse plasma [3] | depolarized cells (mitochondrial membrane), mean±SEM (T47D spheroids [4]) [%] | inhibition of CYP2D6 (CYP2D6; concentration not given) |
| --- | --- | --- | --- | --- | --- | --- | --- | --- |
| COc1cccc(C(=O)Nc2ccc(CC(=O)NCc3ccccc3)cc2)c1 [MAK-1, N-(4-(2-(benzylamino)-2-oxoethyl)phenyl)-3-methoxybenzamide] | 13.9 ± 0.095 | noticeable reduction | no inhibition | 0.083 | 0.0048 | stable | 36.77±1.17 |  |
| O=C(Cc1ccc(NC(=O)c2cccc(Cl)c2)cn1)NCc1ccccc1 [MAK-6, N-(6-(2-(benzylamino)-2-oxoethyl)pyridin-3-yl)-3-chlorobenzamide] | 7.29 ± 0.085 | noticeable reduction |  | 0.087 | 0.0056 |  | 32.77±0.54 | did not display any inhibitory activity |
